Values of other authors as cited in patent US12059317B2, “Multi-phase oral care compositions” (The Procter & Gamble Company, priority 2019, dated 2024).
Read-outs that look alike come from different tables or passages of the source.

Conditions: for Solubility in Water (number of parts by weight per 100 parts by weight of water): hydrophilic bleaching agent particle of the composition, PVP complex value estimated from supplier data sheet on PVP K-30

**Q.** With `NC(N)=O.OO` [Urea Peroxide, Urea Hydrogen Peroxide Adduct] as the molecule, how does the Solubility in water (at 20 C, per Safety Data Sheet from supplier) read?
**A.** The Solubility in water was 800 grams per liter.

**Q.** And the Solubility in water (footnote values from supplier data sheets / Wikipedia)?
**A.** The Solubility in water was 80 parts per 100 parts of water.

**Q.** And the “Solubility in Water (number of parts by weight per 100 parts by weight of water)” value?
**A.** The value was 80 parts by weight per 100 parts by weight of water.

**Q.** And the “Solubility in Water (number of parts by weight per 100 parts by weight of water)” value (listed as urea peroxide)?
**A.** Its value is 80 parts by weight per 100 parts.
